In ChEMBL document CHEMBL3885861, “Open TG-GATES”:

Species: Rattus norvegicus
Experiment: Open TG-GATES - Regimen: Single
Type: toxicity, organism-based, Sprague-Dawley
Design: regimen Single, gender Male, age 6 weeks
Details: in vivo, po, 0 mg/kg, route gavage, dose level Control; for Bas / Eos / Fbg / Hb / Ht / Lym / MCHC / MCV / Mono / PT / Plat / RBC / WBC / APTT: tissue Blood; for KIDNEY_L / KIDNEY_R / KIDNEY_TOTAL: tissue Kidney; for LIVER: tissue Liver; for ALP / ALT / AST / CRE / Ca / Cl / DBIL / GLC / K / LDH / Na / PL / RALB / TBIL / TC / TG / TP / gamma-GTP: tissue Plasma

## COc1ccc([C@@H]2Sc3ccccc3N(CCN(C)C)C(=O)[C@@H]2OC(C)=O)cc1 [DILTIAZEM]
3 h
  TERMINAL_BW: 181.4 g
  Bas: 0%
  Eos: 0.8%
  Fbg: 269 mg/dL
  Hb: 13 g/dL
  Ht: 40.2%
  Lym: 76.8%
  MCHC: 32.3%
  MCV: 67 fL
  Mono: 3.4%
  PT: 14.3 s
  Plat: 127.1 x10_4/uL
  RBC: 600.6 x10_4/ul
  WBC: 84.6 x10_2/uL
  KIDNEY_L: 0.9 g
  KIDNEY_R: 0.9 g
  KIDNEY_TOTAL: 1.8 g
  LIVER: 8.3 g
  ALP: 1273 IU/L
  ALT: 43.2 IU/L
  AST: 75.4 IU/L
  CRE: 0.2 mg/dL
  Ca: 10.9 mg/dL
  Cl: 106.8 meq/L
  DBIL: 0.01 mg/dL
  GLC: 178.4 mg/dL
  K: 4.4 meq/L
  LDH: 79.2 IU/L
  Na: 142 meq/L
  PL: 141 mg/dL
  RALB: 2.5 g/dL
  TBIL: 0.04 mg/dL
  TC: 83.2 mg/dL
  TG: 38.4 mg/dL
  TP: 5.1 g/dL
  gamma-GTP: 1 IU/L
6 h
  TERMINAL_BW: 181.1 g
  APTT: 18.2 s
  Bas: 0%
  Eos: 0.4%
  Fbg: 280 mg/dL
  Hb: 13.3 g/dL
  Ht: 40.7%
  Lym: 78%
  MCHC: 32.6%
  MCV: 66.8 fL
  Mono: 2.6%
  PT: 14.5 s
  Plat: 116.6 x10_4/uL
  RBC: 609.6 x10_4/ul
  WBC: 77 x10_2/uL
  KIDNEY_L: 0.8 g
  KIDNEY_R: 0.8 g
  KIDNEY_TOTAL: 1.7 g
  LIVER: 7.8 g
  ALP: 1331.4 IU/L
  ALT: 40.2 IU/L
  AST: 69.4 IU/L
  CRE: 0.2 mg/dL
  Ca: 10.8 mg/dL
  Cl: 106.6 meq/L
  DBIL: 0.006 mg/dL
  GLC: 171.6 mg/dL
  K: 4.1 meq/L
  LDH: 61.4 IU/L
  Na: 143 meq/L
  PL: 129.8 mg/dL
  RALB: 2.5 g/dL
  TBIL: 0.038 mg/dL
  TC: 71.8 mg/dL
  TG: 43.2 mg/dL
  TP: 5.1 g/dL
  gamma-GTP: 1 IU/L
9 h
  TERMINAL_BW: 180.5 g
  APTT: 17 s
  Bas: 0%
  Eos: 0.6%
  Fbg: 313 mg/dL
  Hb: 13.3 g/dL
  Ht: 41.1%
  Lym: 75.4%
  MCHC: 32.3%
  MCV: 66.5 fL
  Mono: 2.4%
  PT: 14.5 s
  Plat: 126.8 x10_4/uL
  RBC: 619.2 x10_4/ul
  WBC: 78.7 x10_2/uL
  KIDNEY_L: 0.8 g
  KIDNEY_R: 0.8 g
  KIDNEY_TOTAL: 1.7 g
  LIVER: 6.9 g
  ALP: 1820.2 IU/L
  ALT: 43 IU/L
  AST: 75.4 IU/L
  CRE: 0.2 mg/dL
  Ca: 10.6 mg/dL
  Cl: 107 meq/L
  DBIL: 0.01 mg/dL
  GLC: 178 mg/dL
  K: 4.1 meq/L
  LDH: 71.8 IU/L
  Na: 142.2 meq/L
  PL: 119.4 mg/dL
  RALB: 2.5 g/dL
  TBIL: 0.038 mg/dL
  TC: 67.2 mg/dL
  TG: 28.4 mg/dL
  TP: 5.2 g/dL
  gamma-GTP: 1.8 IU/L
24 h
  TERMINAL_BW: 198.1 g
  Bas: 0%
  Eos: 1%
  Fbg: 259.8 mg/dL
  Hb: 13 g/dL
  Ht: 39.6%
  Lym: 74.6%
  MCHC: 32.9%
  MCV: 64.9 fL
  Mono: 3.4%
  PT: 14.8 s
  Plat: 119.2 x10_4/uL
  RBC: 610.2 x10_4/ul
  WBC: 90.7 x10_2/uL
  KIDNEY_L: 0.9 g
  KIDNEY_R: 0.9 g
  KIDNEY_TOTAL: 1.8 g
  LIVER: 8.9 g
  ALT: 48 IU/L
  AST: 77 IU/L
  CRE: 0.2 mg/dL
  Ca: 11.1 mg/dL
  Cl: 107 meq/L
  DBIL: 0.014 mg/dL
  GLC: 187.4 mg/dL
  K: 4.2 meq/L
  LDH: 88.4 IU/L
  Na: 143.8 meq/L
  PL: 148.6 mg/dL
  RALB: 2.6 g/dL
  TBIL: 0.03 mg/dL
  TC: 76.6 mg/dL
